Results reported in patent publication US10555987B2, “GHRH agonists for the treatment of ischemic disorders” (UNIVERSITY OF MIAMI, priority 2012, dated 2020).
Non-standard residues stand in square brackets, D forms with d. Residues, ends and D or L forms follow the SMILES beside them. *: point of attachment. Phe(F5) = N[C@@H](Cc1c(F)c(F)c(F)c(F)c1F)C(=O)O; NMeY = CN[C@@H](Cc1ccc(O)cc1)C(=O)O; Agmatine = N=C(N)NCCCCN*; Nle = CCCC[C@H](N)C(=O)O; Orn = NCCC[C@H](N)C(=O)O; Abu = CC[C@H](N)C(=O)O

Assays:
GH release = test: In vivo endocrine activity, GH release after subcutaneous administration (Table 9); conditions: rat; for GH releasing potency relative to JI-38 (=1): subcutaneous (s.c.) injection
Procedure: Subcutaneous Administration. Adult male rats were used and anesthetized with pentobarbital (6 mg/100 g, b.w.), by i.p. injection. […] Blood samples were taken from the jugular vein 5, 15 and/or 30 minutes after the injection. The blood samples were centrifuged, plasma was removed and the GH level was measured byELISA. The results are summarized in terms of potency in Table 9.

[1] = system: myocardial infarction (Fisher-344 rats); test: Serial echocardiography after MI, compared to JI-38 (Example 15, Table 15); assay type: in vivo, rat; set-up: key to LVEDD: Left Ventricular End Diastolic Diameter / LVESD: Left Ventricular End Systolic Diameter / VD: Ventricular Diastole / VS: Ventricular Systole / EF: Ejection Fraction / FS: Fraction Shortening: ↓: downward arrow denotes lower than JI-38; ↑: upward arrow denotes greater than JI-38; =denotes same as JI-38; ⬇⬇: double arrow denotes greater effect; ⬆⬆: double arrow denotes greater effect; conditions: in comparison to JI-38
How it was run: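 Female 6-month-old Fisher-344 rats with permanent left coronary artery ligation received placebo, JI-38 or GHRH agonists subcutaneously twice daily from 2 h post-surgery (10 per group). Under 2% isoflurane, M-mode LVEDD, LVESD and FS plus long-axis EF were measured at baseline, 2 days, 1, 2 and 4 weeks.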

| SMILES | GH releasing potency relative to JI-38 (=1) (GH release; 15 min after) | GH releasing potency relative to JI-38 (=1) (GH release; 30 min after) | EF: Ejection Fraction [1] | FS: Fraction Shortening [1] | LVEDD: Left Ventricular End Diastolic Diameter [1] | LVESD: Left Ventricular End Systolic Diameter [1] | VD: Ventricular Diastole [1] | VS: Ventricular Systole [1] | Stimulation of growth hormone levels after subcutaneous administration (in words) (GH release; s.c.) |
| --- | --- | --- | --- | --- | --- | --- | --- | --- | --- |
| CCCC[C@H](NC(=O)[C@@H](NC(=O)[C@H](CC(=O)O)NC(=O)[C@H](CCC(N)=O)NC(=O)[C@H](CC(C)C)NC(=O)[C@H](CC(C)C)NC(=O)[C@H](CCCN)NC(=O)[C@H](CCCNC(=N)N)NC(=O)[C@H](C)NC(=O)[C@H](CO)NC(=O)[C@H](CC(C)C)NC(=O)[C@H](CCC(N)=O)NC(=O)[C@H](CC)NC(=O)[C@H](CC(C)C)NC(=O)[C@@H](NC(=O)[C@H](CCCN)NC(=O)[C@H](CCCNC(=N)N)NC(=O)[C@H](Cc1ccc(O)cc1)NC(=O)[C@H](CO)NC(=O)[C@H](CC(N)=O)NC(=O)[C@@H](NC(=O)[C@H](Cc1ccccc1)NC(=O)[C@@H](NC(=O)[C@H](C)NC(=O)[C@H](CC(=O)O)NC(=O)[C@@H](C)NC(=O)[C@H](Cc1ccc(O)cc1)NC)[C@@H](C)CC)[C@@H](C)O)C(C)C)[C@@H](C)CC)C(=O)N[C@@H](CC(=O)O)C(=O)NCCCCNC(=N)N [Peptide P-20367, [N—Me-Tyr^1, D-Ala^2, Orn^12, Abu^15, Orn^21, Nle^27, Asp^28, Agm^29]hGHRH(1-29)NH2] (H-[NMeY][dA]DAIFTNSYR[Orn]VL[Abu]QLSAR[Orn]LLQDI[Nle]D-Agmatine) | 1.12 | 2.01 | = | = | ↑ | ↑ | ↑ | ↑ | – |
| CCCC[C@H](NC(=O)[C@@H](NC(=O)[C@H](CC(=O)O)NC(=O)[C@H](CCC(N)=O)NC(=O)[C@H](CC(C)C)NC(=O)[C@H](CC(C)C)NC(=O)[C@H](CCCN)NC(=O)[C@H](CCCNC(=N)N)NC(=O)[C@H](C)NC(=O)[C@H](CO)NC(=O)[C@H](CC(C)C)NC(=O)[C@H](CCC(N)=O)NC(=O)[C@H](CC)NC(=O)[C@H](CC(C)C)NC(=O)[C@@H](NC(=O)[C@H](CCCN)NC(=O)[C@H](CCCNC(=N)N)NC(=O)[C@H](Cc1ccc(O)cc1)NC(=O)[C@H](CO)NC(=O)[C@H](CCC(N)=O)NC(=O)[C@@H](NC(=O)[C@H](Cc1ccccc1)NC(=O)[C@@H](NC(=O)[C@H](C)NC(=O)[C@H](CC(=O)O)NC(=O)[C@@H](C)NC(=O)[C@H](Cc1ccc(O)cc1)NC)[C@@H](C)CC)[C@@H](C)O)C(C)C)[C@@H](C)CC)C(=O)N[C@@H](CC(=O)O)C(=O)NCCCCNC(=N)N [Peptide P-20361, [N—Me-Tyr^1, D-Ala^2, Gln^8, Orn^12, Abu^15, Orn^21, Nle^27, Asp^28, Agm^29] hGHRH (1-29)NH2] (H-[NMeY][dA]DAIFTQSYR[Orn]VL[Abu]QLSAR[Orn]LLQDI[Nle]D-Agmatine) | 1.18 | 1.50 | ↓ | = | = | = | = | ↑ | – |
| CCCC[C@H](NC(=O)[C@@H](NC(=O)[C@H](CC(=O)O)NC(=O)[C@H](CCC(N)=O)NC(=O)[C@H](CC(C)C)NC(=O)[C@H](CC(C)C)NC(=O)[C@H](CCCN)NC(=O)[C@H](CCCNC(=N)N)NC(=O)[C@H](C)NC(=O)[C@H](CO)NC(=O)[C@H](CC(C)C)NC(=O)[C@H](CCC(N)=O)NC(=O)[C@H](CC)NC(=O)[C@H](CC(C)C)NC(=O)[C@@H](NC(=O)[C@H](CCCN)NC(=O)[C@H](CCCNC(=N)N)NC(=O)[C@H](Cc1ccc(O)cc1)NC(=O)[C@H](CO)NC(=O)[C@H](CCC(N)=O)NC(=O)[C@@H](NC(=O)[C@H](Cc1c(F)c(F)c(F)c(F)c1F)NC(=O)[C@@H](NC(=O)[C@H](C)NC(=O)[C@H](CC(=O)O)NC(=O)[C@@H](C)NC(=O)[C@H](Cc1ccc(O)cc1)NC)[C@@H](C)CC)[C@@H](C)O)C(C)C)[C@@H](C)CC)C(=O)N[C@@H](CC(=O)O)C(=O)N[C@@H](CCCNC(=N)N)C(=O)NC [Peptide P-27404, [N—Me-Tyr^1, D-Ala^2, Fpa5^6, Orn^12, Abu^15, Orn^21, Nle^27, Asp^28]hGHRH (1-29)NH—CH3] (H-[NMeY][dA]DAI[Phe(F5)]TQSYR[Orn]VL[Abu]QLSAR[Orn]LLQDI[Nle]DR-NHMe) | 2.07 | 1.47 | = | = | ↑ | = | ↑ | ↑ | stimulated greater growth hormone levels than hGHRH or JI-38 |
